Experimental data as given in patent publication US9822138B2, “Antiviral beta-amino acid ester phosphodiamide compounds” (Merck Sharp & Dohme Corp., priority 2015, dated 2017).
Like-named read-outs stand apart in the source and are kept apart here.

Test system: HIV-1 (H9/IIIB strain)
Test: microbe, parasite or virus in culture
Type: cell-based
Protocol: Assessing Antiviral Potency in a Multiple Round HIV-1 Infection Assay (Viking Assay)
The antiviral activity of the tenofovir prodrugs of the Examples herein was assessed in an assay that measures the rate of replication of HIV in cell culture, termed the Viking assay (Viral KINetics in Green cells) and performed as follows. HIV-1 replication was monitored using MT4-gag-GFP clone D3 (hereafter designated MT4-GFP), which are MT-4 cells modified to harbor a GFP reporter gene, the expression of which is dependent on the HIV-1 expressed proteins tat and rev. Productive infection of an MT4-GFP cell with HIV-1 results in GFP expression approximately 24 h post-infection. MT4-GFP cells were maintained at 37° C./5% CO2/90% relative humidity in RPMI 1640 supplemented with 10% fetal bovine serum, 100 U/ml penicillin/streptomycin, and 400 μg/ml G418 to maintain the reporter gene. For infections, MT4-GFP cells were placed in the same medium lacking G418 and infected overnight with HIV-1 (H9/IIIB strain) virus at an approximate multiplicity of infection of 0.01 in the same incubation conditions. Cells were then washed and re-suspended in either RPMI 1640 supplemented with 10% or 50% normal human serum (NHS) at 1.6×10^5 cells/mL (10% NHS or 50% NHS, respectively). Compound plates were prepared by dispensing compounds dissolved in DMSO into wells of 384 well poly-D-lysine-coated plates (0.2 μl/well) using an ECHO acoustic dispenser. Each compound was tested in a 10-point serial 3-fold dilution (typical final concentrations: 8.4 μM-0.42 nM). Controls included no inhibitor (DMSO only) and a combination of three antiviral agents (efavirenz, indinavir, an in-house integrase strand transfer inhibitor at final concentrations of 4 μM each). Cells were added ([…]) to compound plates and the infected cells were maintained at 37° C./5% CO2/90% relative humidity.
Infected cells were quantified at two time points, ˜48 h and ˜72 h post-infection, by counting the number of green cells in each well using an Acumen eX3 scanner. […] Inhibition of R0 is calculated for each well, and IC50s determined by non-linear 4-parameter curve fitting.

[1] = 10% normal human serum, MT4-GFP cells infected with HIV-1 H9/IIIB, inhibition of reproductive ratio R0, read-out: Viking, IC50 (10% NHS)
[2] = Human immunodeficiency virus 1, 10% normal human serum, MT4-GFP cells infected with HIV-1 H9/IIIB, inhibition of reproductive ratio R0, read-out: Viking, IC50 (10% NHS)
[3] = Human immunodeficiency virus 1, 50% normal human serum, MT4-GFP cells infected with HIV-1 H9/IIIB, inhibition of reproductive ratio R0, read-out: Viking, IC50 (50% NHS)
[4] = 50% normal human serum, MT4-GFP cells infected with HIV-1 H9/IIIB, inhibition of reproductive ratio R0, read-out: Viking, IC50 (50% NHS)
[5] = Human immunodeficiency virus 1, IIIB, 10% normal human serum, MT4-GFP cells infected with HIV-1 H9/IIIB, inhibition of reproductive ratio R0, read-out: Viking, IC50 (10% NHS)
[6] = Human immunodeficiency virus 1, IIIB, 50% normal human serum, MT4-GFP cells infected with HIV-1 H9/IIIB, inhibition of reproductive ratio R0, read-out: Viking, IC50 (50% NHS)

Row | Compound | IC50 [1] [nM] | IC50 [4] [nM] | IC50 [6] [nM] | also measured
1 | CC(C)OC(=O)[C@@H](C)CNP(=O)(CO[C@H](C)Cn1cnc2c(N)ncnc21)N[C@H](C)C(=O)OC1CCCCC1 (single isomer, unassigned) [Example 21A] | 1460 | – | – | –
2 | CCCCCOC(=O)C(C)(C)N[P@@](=O)(CO[C@H](C)Cn1cnc2c(N)ncnc21)N[C@@H](CC(=O)OC(C)C)C(C)C [Example 24B] | – | – | – | IC50 [2]: 28.9 nM; IC50 [3]: 170 nM
3 | CC(C)OC(=O)CCNP(=O)(CO[C@H](C)Cn1cnc2c(N)ncnc21)N[C@H](C)C(=O)OC1CCC1 (single isomer, unassigned) [Example 23A] | > 8400 | > 8400 | – | –
4 | CC(C)OC(=O)C[C@@H](C)NP(=O)(CO[C@H](C)Cn1cnc2c(N)ncnc21)N[C@@H](C)C(=O)OC(C)C (single isomer, unassigned) [Example 9B] | 378 | 800 | – | –
5 | CC(C)OC(=O)[C@H](C)CNP(=O)(CO[C@H](C)Cn1cnc2c(N)ncnc21)NC[C@@H](C)C(=O)OC(C)C [Example 4, 1-methylethyl (5R,11R)-8-{[(1R)-2-(6-amino-9H-purin-9-yl)-1-methylethoxy]methyl}-2,5,11-trimethyl-4-oxo-3-oxa-7,9-diaza-8-phosphadodecan-12-oate 8-oxide] | – | – | > 8400 | IC50 [5]: 6460 nM
6 | CCCCOC(=O)[C@H](C)NP(=O)(CO[C@H](C)Cn1cnc2c(N)ncnc21)NC[C@H](C)C(=O)OC(C)C (single isomer, unassigned) [Example 15A] | – | – | 146 | IC50 [5]: 19.6 nM
7 | CC(C)OC(=O)[C@@H](C)CNP(=O)(CO[C@H](C)Cn1cnc2c(N)ncnc21)N[C@H](C)C(=O)OC1CCCC1 (single isomer, unassigned) [Example 22A] | 400 | – | 480 | –
8 | CC(C)OC(=O)C[C@@H](C)NP(=O)(CO[C@H](C)Cn1cnc2c(N)ncnc21)N[C@H](C)C(=O)OC1CCC1 (some centres unmarked) [Example 18B] | – | – | – | IC50 [2]: 3810 nM; IC50 [3]: 7120 nM
9 | CC(C)OC(=O)CCNP(=O)(CO[C@H](C)Cn1cnc2c(N)ncnc21)N[C@@H](C)C(=O)OC(C)C (single isomer, unassigned) [Example 7B] | – | – | – | IC50 [2]: 378 nM; IC50 [3]: 393 nM
10 | CC(C)OC(=O)C[C@H](C)NP(=O)(CO[C@H](C)Cn1cnc2c(N)ncnc21)N[C@@H](C)CC(=O)OC(C)C [Example 5, 1-methylethyl (6S,10S)-8-{[(1R)-2-(6-amino-9H-purin-9-yl)-1-methylethoxy]methyl}-2,6,10-trimethyl-4-oxo-3-oxa-7,9-diaza-8-phosphadodecan-12-oate 8-oxide] | – | – | > 8400 | IC50 [5]: > 8400 nM
11 | CC(C)OC(=O)[C@@H](C)CNP(=O)(CO[C@H](C)Cn1cnc2c(N)ncnc21)N[C@H](C)C(=O)OC1CCCCC1 (single isomer, unassigned) [Example 21B] | 270 | 836 | – | –
12 | CC(C)OC(=O)[C@@H](C)CNP(=O)(CO[C@H](C)Cn1cnc2c(N)ncnc21)N[C@@H](C)C(=O)OC1CCCC1 (single isomer, unassigned) [Example 11A] | – | – | 104 | IC50 [5]: 21.5 nM
13 | CC(C)OC(=O)C[C@H](C)NP(=O)(CO[C@H](C)Cn1cnc2c(N)ncnc21)N[C@@H](C)C(=O)OC(C)C (single isomer, unassigned) [Example 8B] | 439 | 531 | – | –
14 | CC(C)OC(=O)C[C@@H](C)NP(=O)(CO[C@H](C)Cn1cnc2c(N)ncnc21)N[C@H](C)CC(=O)OC(C)C [Example 2, 1-methylethyl (6R,10R)-8-{[(1R)-2-(6-amino-9H-purin-9-yl)-1-methylethoxy]methyl}-2,6,10-trimethyl-4-oxo-3-oxa-7,9-diaza-8-phosphadodecan-12-oate 8-oxide] | – | – | > 8400 | IC50 [5]: > 8400 nM
15 | CCCCCCOC(=O)C(C)(C)NP(=O)(CO[C@H](C)Cn1cnc2c(N)ncnc21)N[C@@H](CC(=O)OC(C)C)C(C)C (single isomer, unassigned) [Example 28A] | 19.1 | 58.5 | – | –
16 | CCCCCOC(=O)C(C)(C)NP(=O)(CO[C@H](C)Cn1cnc2c(N)ncnc21)N[C@@H](C)CC(=O)OC(C)C (single isomer, unassigned) [Example 26A] | 23.3 | 116 | – | –
17 | CC(C)OC(=O)CCNP(=O)(CO[C@H](C)Cn1cnc2c(N)ncnc21)NCCC(=O)OC(C)C [Example 1, 1-methylethyl 8-{[(1R)-2-(6-amino-9H-purin-9-yl)-1-methylethoxy]methyl}-2-methyl-4-oxo-3-oxa-7,9-diaza-8-phosphadodecan-12-oate 8-oxide] | – | – | – | IC50 (Human immunodeficiency virus 1, IIIB, read-out: Viking, IC50 (10% NHS)): > 8400 nM; IC50 (Human immunodeficiency virus 1, IIIB, read-out: Viking, IC50 (50% NHS)): > 8400 nM
18 | CC(C)OC(=O)[C@H](C)NP(=O)(CO[C@H](C)Cn1cnc2c(N)ncnc21)NC[C@H](C)C(=O)OC(C)C (some centres unmarked) [Example 6B] | – | – | – | IC50 [2]: 258 nM; IC50 [3]: 494 nM
19 | CC(C)OC(=O)[C@H](C)CNP(=O)(CO[C@H](C)Cn1cnc2c(N)ncnc21)N[C@@H](C)C(=O)OC(C)C (single isomer, unassigned) [Example 10B] | 435 | 908 | – | –
20 | CC(C)OC(=O)C[C@H](C)NP(=O)(CO[C@H](C)Cn1cnc2c(N)ncnc21)N[C@H](C)C(=O)OC1CCC1 (single isomer, unassigned) [Example 19B] | 3790 | > 8400 | – | –
21 | CC(C)OC(=O)[C@@H](C)CNP(=O)(CO[C@H](C)Cn1cnc2c(N)ncnc21)NC[C@H](C)C(=O)OC(C)C [Example 3, 1-methylethyl (5S,11S)-8-{[(1R)-2-(6-amino-9H-purin-9-yl)-1-methylethoxy]methyl}-2,5,11-trimethyl-4-oxo-3-oxa-7,9-diaza-8-phosphadodecan-12-oate 8-oxide] | – | – | > 8400 | IC50 [5]: 7340 nM
22 | CC(C)OC(=O)[C@@H](C)CNP(=O)(CO[C@H](C)Cn1cnc2c(N)ncnc21)N[C@@H](C)C(=O)OC1CCC1 (single isomer, unassigned) [Example 12A] | – | – | 119 | IC50 [5]: 41.7 nM
23 | CC(C)OC(=O)[C@@H](C)CNP(=O)(CO[C@H](C)Cn1cnc2c(N)ncnc21)N[C@@H](C)C(=O)OC1CCCCC1 (single isomer, unassigned) [Example 13B] | 34.2 | 175 | – | –
24 | CC(C)OC(=O)[C@@H](C)CNP(=O)(CO[C@H](C)Cn1cnc2c(N)ncnc21)N[C@H](C)C(=O)OC1CCC1 (single isomer, unassigned) [Example 20A] | 859 | 4100 | – | –
